How the values were obtained:
platelet aggregation = assay: Experiment C: clinical case studies, platelet anti-aggregation activity, oral administration; assay type: in vivo
Procedure: (§1) The following clinical experimentation was carried out to clinically test various compounds in accordance with the present invention for their anti-inflammatory, analgesic and platelet aggregation or clumping inhibition activites.
The following case studies relate to the platelet anti-aggregation activity associated with the oral administration of 2'-(N,N-diethylaminoethyl) 5-(2'-thenoyl)-indan-2-carboxylate.

[1] = tested on: erythema produced by ultra violet radiation; assay: Protective effect against erythema from ultra violet radiation (Winder et al.); assay type: in vivo, albino guinea pigs; conditions: Cavia porcellus; albino guinea pig, oral; amount reducing erythema by 50%; read-out: AD50, U.V.
Procedure: D--The protective effect against inflammation resulting from exposure to radiation was determined in albino guinea pigs using the method of Winder et al (Arch. Inv. Pharmacodyn. 1958, Vol. 116, page 261). The AD50 value was determined for the test substance, namely the amount which, when administered to the animal orally, reduced by 50% the erythema produced by exposing the shaved dorsal skin of the guinea pig to ultra violet radiation.

platelets = assay: In vitro inhibition of platelet aggregation induced by collagen (Born); assay type: cell-based; conditions: read-out: minimal active concentration, Platelet Aggregation Induced By Collagen
Procedure: E--The anti-inflammatory activity was also determined by the aggregation-inhibiting effect of the compounds in accordance with the present invention, in vitro, on platelets the aggregation of which was induced by collagen, in accordance with the method of Born (Journal of Physiology, 1962, Vol. 162, page 67). It is known that compounds which inhibit the activity or quantity of prostaglandin synthetase will inhibit the formation of prostaglandin PGE2 and the inflammatory and pyretic effect thereof. Since prostaglandin PGE2 also causes an increase in platelet aggregation, this test is an effective indication of anti-inflammatory and anti-pyretic activity due to inhibition of prostaglandin synthetase.

[2] = tested on: carrageenin-induced edema; assay: Anti-inflammatory activity, carrageenin-induced edema test (Winter et al.); assay type: in vivo; conditions: rat, oral; dose inhibiting edema by 30%; read-out: AD30, Carrageenin
Description: The protection afforded, by oral administration of the compound to a rat against edema induced by injecting a suspension of carrageenin under the arch of the foot of the animal was investigated. The AD30 dose is that which inhibits the edema by 30%.

[3] = tested on: spasms of pain caused by the intraperitoneal injection of a solution of acetic acid; assay: Analgesic activity, acetic acid induced spasms of pain (Koster et al.); assay type: in vivo; conditions: mouse, oral; dose reducing spasms of pain by 50%; read-out: AD50, Acetic Acid
Procedure: B--Analgesic activity in the mouse was determined by the method of Koster et al. (Fed. Proc. 1959, Vol. 18, page 412). The active dose 50 (AD50) value for various compounds in accordance with the present invention was determined, namely, that dose which, when administered orally, reduces by 50% the spasms of pain caused by the intraperitoneal injection of a solution of acetic acid.

[4] = Acute toxicity, LD 50 (oral route), mice; conditions: mouse, in vivo
Description: A--The substances are of low toxicity. For example, the LD 50 value (oral route), determined in mice, of various compounds in accordance with the present invention are shown in column A of Table I.

[5] = Experiment B: clinical case studies, analgesic activity, oral administration; assay type: in vivo; conditions: for Tolerance, Biological / Tolerance, Clinical: NAD = Nothing Abnormal Discovered
Procedure: as §1
The following case studies relate to the analgesic activity associated with the oral administration of methyl 5-(4'-dimethylaminobenzoyl)-indan-2-carboxylate.
Diagnosis: Painful episode against a background of arthrosis of the cervical spine
Treatment: 600 mg/day for 3 weeks
Diagnosis: Pains in the right hip when pressure applied, secondary to aseptic osteonecrosis
Treatment: 600 mg/day for 15 days
Diagnosis: Arthrosis of the right hip resembling Paget's Disease

[6] = Case 1, oral 200 mg, before treatment 100%
[7] = Case 2, oral 200 mg, before treatment 100%
[8] = Case 3, oral 200 mg, before treatment 100%
[9] = Case 1, arthrosis of the cervical spine, oral 600 mg/day for 3 weeks
[10] = Case 1, oral 600 mg/day for 3 weeks
[11] = Case 2, hip pain secondary to aseptic osteonecrosis, oral 600 mg/day for 15 days
[12] = Case 2, oral 600 mg/day for 15 days
[13] = Case 3, arthrosis of the right hip, oral 600 mg/day for 15 days
[14] = Case 3, oral 600 mg/day for 15 days

Compound: CCN(CC)CCOC(=O)C1Cc2ccc(C(=O)c3cccs3)cc2C1 (centres unmarked) [2'-(N,N-diethylaminoethyl) 5-(2'-thenoyl)-indan-2-carboxylate]
- second phase of aggregation with ADP (platelet aggregation; Case 1, oral 200 mg): Inhibition
- Aggregation with collagen, 1 h after taking 200 mg (platelet aggregation; [6]): 0%
- Aggregation with collagen, 3 h after taking 200 mg (platelet aggregation; [6]): 0%
- Aggregation with collagen 24 hours after the last dose (platelet aggregation; Case 1, oral, 24 h after last dose, before treatment 100%): 10%
- second phase of aggregation with ADP (platelet aggregation; Case 2, oral 200 mg): 0%
- Aggregation with collagen, 1 h after taking 200 mg (platelet aggregation; [7]): 10%
- Aggregation with collagen, 3 h after taking 200 mg (platelet aggregation; [7]): 10%
- Aggregation with collagen 24 hours after last dose (platelet aggregation; Case 2, oral, 24 h after last dose, before treatment 100%): 15%
- second phase of aggregation with ADP (platelet aggregation; Case 3, oral 200 mg): Inhibition
- Aggregation with collagen, 1 h after taking 200 mg (platelet aggregation; [8]): 0%
- Aggregation with collagen, 3 h after taking 200 mg (platelet aggregation; [8]): 0%
- Aggregation with collagen 24 hours after last dose (platelet aggregation; Case 3, oral, 24 h after last dose, before treatment 100%): 0%

Compound: COC(=O)C1Cc2ccc(C(=O)c3ccc(N(C)C)cc3)cc2C1 (centres unmarked) [Methyl 5-(4'-dimethylaminobenzoyl)-indan-2-carboxylate]
- ED50 [1]: 24 mg/kg
- minimal effective concentration (platelets): 0.25 µg/mL
- ED30 [2]: 12 mg/kg
- ED50 [3]: 2.5 mg/kg
- LD50 [4]: 1450 mg/kg
- Conclusion [5, 9]: Good result
- Length of relief [5, 9]: 4 h
- Time taken to relieve pain [5, 9]: 30 min
- Tolerance, Biological [5, 10]: NAD
- Tolerance, Clinical [5, 10]: NAD (Nothing Abnormal Discovered)
- Conclusion [5, 11]: Very good result
- Length of relief [5, 11]: 4 h
- Time to relieve pain [5, 11]: less than 15 minutes
- Tolerance, Biological [5, 12]: NAD
- Tolerance, Clinical [5, 12]: NAD
- Conclusion [5, 13]: Good result
- Length of relief [5, 13]: 2 h
- Time to relieve pain [5, 13]: 30 min
- Tolerance, Biological [5, 14]: NAD
- Tolerance, Clinical [5, 14]: NAD
